Patent US7342137B1, “Cyclohexenone compounds from Antrodia camphorata and application thereof” (Golden Biotechnology Corporation, priority 2007, dated 2008)

Assays:
[1] = tested on: human hepatic cancer cells, Hep 3B; assay: In vitro Lovastatin add-on study (MTT), Hep 3B; assay type: cell-based; details: Homo sapiens, Hep3B, 0.0043 μg/ml Lovastatin + formula 2
Experimental: The experiment was also carried out according to NCI anti-cancer drug screen in vitro model. The human hepatic cancer cells, Hep 3B and Hep G2 […] were separately cultivated in media containing fetal calf serum for 24 hours. The proliferated cells were washed once with PBS, then treated with 1× trypsin-EDTA and centrifuged at 1200 rpm for 5 minutes. The supernatant was discarded and the cell pellet was resuspended in 10 ml of fresh culture medium by gently shaking. The Hep 3B cells were treated with 0.0043 μg/ml of Lovastatin for 72 hours and Hep G2 cells were treated with 0.0017 μg/ml of Taxol for 72 hours before placing in a 96-well plate. 4-hydroxy-2,3-dimethoxy-6-methyl-5(3,7,11-trimethyl-dodeca-2,6,10-trienyl)-cyclohex-2-enone obtained from example 1 were added respectively into each of the 96 wells at the following concentrations: 0 μg/ml (the control group); 30, 10, 3, 1, 0.3, 0.1 and 0.03 μg/ml (the experiment group). The cells were incubated at 37° C. in a 5% CO2 incubator for 48 hours. MTT was added in a concentration of 2.5 mg/ml into each well in dark and reacted for 4 hours, followed by the addition of 100 μl of lysis buffer to stop the reaction. The plates were read on an ELISA reader at wavelength of 570 nm to determine the survival rates.

[2] = tested on: human hepatic-cancer cells, Hep G2; assay: In vitro survival assay (MTT), hepatic cancer cells Hep G2; assay type: cell-based; details: HepG2, 48 hours incubation
Experimental: The NCI anti-cancer drug screen model was also adopted to test the anti-cancer effect of the compound isolated from example 1 in the present invention. The isolated compound of 4-hydroxy-2,3-dimethoxy-6-methyl-5(3,7,11-trimethyl-dodeca-2,6,10-trienyl)-cyclohex-2-enone from example 1 was added into the culture media of human hepatic-cancer cells, Hep 3B or Hep G2, for tumor cell survival assay.
The human hepatic-cancer cells, Hep 3B and Hep G2, were separately cultivated in media containing fetal calf serum for 24 hours. The proliferated cells were washed once with PBS, then treated with 1× trypsin-EDTA and centrifuged at 1200 rpm for 5 minutes. The supernatant was discarded and the cell pellet was resuspended in 10 ml of fresh culture medium by gently shaking. The cells were placed in a 96-well plate. Ethanol extracts of Antrodia camphorata (the control group, total extracts of Antrodia camphorata without purification) were added into each of the 96 wells at the following concentrations: 30, 10, 3, 1, 0.3, 0.1 and 0.03 μg/ml, respectively, while 4-hydroxy-2,3-dimethoxy-6-methyl-5(3,7,11-trimethyl-dodeca-2,6,10-trienyl)-cyclohex-2-enone (the experiment group) were added into each of the 96 wells at the following concentrations: 30, 10, 3, 1, 0.3, 0.1 and 0.03 μg/ml, respectively. […] The plates were read on an ELISA reader at wavelength of 570 nm to determine the survival rates.

[3] = tested on: Human low density lipoprotein (LDL); assay: In vitro antioxidant activity study (Cu2+-induced LDL oxidation, diene formation); assay type: biochemical; details: 40 μg/mL formula 2; for Capacity values: capacity value 1 = 2 μM Trolox, antioxidant ability when larger than 0.5
Experimental: Human low density lipoprotein (LDL) oxidated with copper ion (Cu^2+) has been widely employed to assess antioxidant activities of samples to be assayed. Antioxidant activity of a sample is determined by the diene contents of LDL after oxidation and expressed in Trolox equivalents by using a standard curve calculated from the water-soluble vitamin E analogue Trolox standards (the antioxidant capacity value of 1 is expressed in terms of 2 μM of Trolox).
The following solutions were prepared firstly: double distilled water (the negative control group), 5 mM sodium phosphate buffer (SPB), 1 μM and 2 μM Trolox solution (the positive control group), and 40 μg/ml 4-hydroxy-2,3-dimethoxy-6-methyl-5(3,7,11-trimethyl-dodeca-2,6,10-trienyl)-cyclohex-2-enone isolated from example 1. The concentration of LDL cholesterol (LDL-C) was determined using enzyme reaction method, which was diluted to 0.1-0.25 mg/ml with 5 mM SPB. One hundred μl of the LDL was added into each well of a 96-well quartz plate, followed by addition of the abovementioned Trolox and the isolated compound from example 1. Standardized oxidizing agent CuSO4 was supplemented to induce oxidation at a final concentration of 5 μM in each 250 μl well. The plate was read on an ELISA reader at wavelength of 232 nm at 37 °C for 12 hours. The sampling time was 15 min.

Question: How did the IC50 [1] turn out when COC1=C(OC)C(O)C(C/C=C(\C)CC/C=C(\C)CCC=C(C)C)C(C)C1=O (stereo not drawn) [formula 2, 4-hydroxy-2,3-dimethoxy-6-methyl-5(3,7,11-trimethyl-dodeca-2,6,10-trienyl)-cyclohex-2-enone] was run?
Answer: 0.002 µg/mL

Question: What about the IC50 [2] of the same compound?
Answer: 1.68 µg/mL

Question: What about the “Tlag” value ([3]; LDL oxidised with 5 μM CuSO4) of the same compound?
Answer: 439 min

Question: What about the Capacity values [3] of the same compound?
Answer: 1.30

Question: What about the Capacity values ([3]; listed as 4-hydroxy-2,3-dimethoxy-6-methyl-5(3,7,11-trimethyl-dodeca-2,6,10-trienyl)-cyclo) of the same compound?
Answer: 1.3

Question: And the “ΔTlag” value ([3]; difference between Tlag and Tlag0 (H2O))?
Answer: 208 min
